Assay results published in ChEMBL document CHEMBL5614442, “Discovery, synthesis and biological evaluation of novel isoquinoline derivatives as potent indoleamine 2, 3-dioxygenase 1 and tryptophan 2, 3-dioxygenase dual inhibitors” (Eur J Med Chem, 2024).

Legend:
Assay type in all cases: organism-based
Conditions in all cases: in vivo, 336 h, time 14 day
[1] = Toxicity in male C57BL/6 mouse implanted with mouse B16-F10 cells assessed as effect on spleen morphology at 100 mg/kg, ip administered once daily for 14 days by H and E staining based analysis
[2] = Toxicity in male C57BL/6 mouse implanted with mouse B16-F10 cells assessed as body weight loss at 100 mg/kg, ip administered once daily for 14 days
[3] = Toxicity in male C57BL/6 mouse implanted with mouse B16-F10 cells assessed as effect on kidney morphology at 100 mg/kg, ip administered once daily for 14 days by H and E staining based analysis
[4] = Toxicity in male C57BL/6 mouse implanted with mouse B16-F10 cells assessed as effect on heart morphology at 100 mg/kg, ip administered once daily for 14 days by H and E staining based analysis
[5] = Toxicity in male C57BL/6 mouse implanted with mouse B16-F10 cells assessed as effect on liver morphology at 100 mg/kg, ip administered once daily for 14 days by H and E staining based analysis
[6] = Toxicity in male C57BL/6 mouse implanted with mouse B16-F10 cells assessed as effect on lung morphology at 100 mg/kg, ip administered once daily for 14 days by H and E staining based analysis

Measured: Activity

Cn1cc(C[C@H](N)C(=O)O)c2ccccc21 [(L)-1-METHYLTRYPTOPHAN]
Non-Toxic: [1] | [2] | [3] | [4] | [5] | [6]
